Laboratory results reported in the supplement of paper PMC8149375.

Key:
Conditions in all cases: treatment: drug + dasatinib (fixed dose, not stated); 5 days
[1] = tested on: SN12C; test: minimum viability across doses, drug + dasatinib, relative to DMSO (fraction); higher = less growth inhibition
Procedure: (§1)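 Primary HTS combination arm: 8 RCC cell lines treated with 8 doses (up to 10 uM) of each library drug plus a fixed dose of dasatinib (dose not stated) for 5 days; viability read by CellTiter-Glo and normalised to DMSO. GI50 was fitted with XLfit, AUC is the area under the dose-response curve, and minimum viability is the lowest fraction of DMSO viability across doses.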

[2] = tested on: TK-10; test: as above
Procedure: as §1

[3] = tested on: 769-P; test: as above
Procedure: as §1

[4] = tested on: A498; test: as above
Procedure: as §1

[5] = tested on: ACHN; test: as above
Procedure: as §1

[6] = tested on: CAKI-1; test: as above
Procedure: as §1

[7] = tested on: 786-O; test: as above
Procedure: as §1

[8] = tested on: UO-31; test: as above
Procedure: as §1

[9] = tested on: SN12C; test: GI50 of drug in presence of dasatinib; higher = less potent
Procedure: as §1

[10] = tested on: TK-10; test: as above
Procedure: as §1

[11] = tested on: 769-P; test: as above
Procedure: as §1

[12] = tested on: A498; test: as above
Procedure: as §1

[13] = tested on: ACHN; test: as above
Procedure: as §1

[14] = tested on: CAKI-1; test: as above
Procedure: as §1

[15] = tested on: 786-O; test: as above
Procedure: as §1

[16] = tested on: UO-31; test: as above
Procedure: as §1

[17] = tested on: SN12C; test: AUC of dose-response viability curve, drug + dasatinib, normalised to DMSO (arbitrary (AUC of normalised viability)); higher = less growth inhibition
Procedure: as §1

[18] = tested on: TK-10; test: as above
Procedure: as §1

[19] = tested on: 769-P; test: as above
Procedure: as §1

[20] = tested on: A498; test: as above
Procedure: as §1

[21] = tested on: ACHN; test: as above
Procedure: as §1

[22] = tested on: CAKI-1; test: as above
Procedure: as §1

[23] = tested on: 786-O; test: as above
Procedure: as §1

[24] = tested on: UO-31; test: as above
Procedure: as §1

Structure (SMILES)	minimum viability across doses [1]	minimum viability across doses [2]	minimum viability across doses [3]	minimum viability across doses [4]	minimum viability across doses [5]	minimum viability across doses [6]	minimum viability across doses [7]	minimum viability across doses [8]	GI50 of drug [9]	GI50 of drug [10]	GI50 of drug [11]	GI50 of drug [12]	GI50 of drug [13]	GI50 of drug [14]	GI50 of drug [15]	GI50 of drug [16]	AUC of dose-response viability curve [17]	AUC of dose-response viability curve [18]	AUC of dose-response viability curve [19]	AUC of dose-response viability curve [20]	AUC of dose-response viability curve [21]	AUC of dose-response viability curve [22]	AUC of dose-response viability curve [23]	AUC of dose-response viability curve [24]
COc1cc(CCc2cc(NC(=O)c3ccc(N4C[C@@H](C)N[C@@H](C)C4)cc3)n[nH]2)cc(OC)c1 [AZD4547] + Cc1nc(Nc2ncc(C(=O)Nc3c(C)cccc3Cl)s2)cc(N2CCN(CCO)CC2)n1 [dasatinib]	0.061	0.314	0.581	0.542	0.14	0.0512	0.106	0.016	201 nM	3000 nM	> 10000 nM	> 10000 nM	314 nM	34 nM	3540 nM	4240 nM	1.78	2.37	2.51	3.4	1.72	1.25	2.33	4.54
CN(C)CCOc1ccc(-c2nc(-c3ccncc3)c(-c3ccc4c(c3)CC/C4=N/O)[nH]2)cc1 + Cc1nc(Nc2ncc(C(=O)Nc3c(C)cccc3Cl)s2)cc(N2CCN(CCO)CC2)n1 [dasatinib]	0.476	0.497	0.0915	0.0493	0.0859	0.0583	0.0096	0.0511	> 10000 nM	9950 nM	3460 nM	3760 nM	2480 nM	3900 nM	3720 nM	8340 nM	2.57	3.03	2.3	3.54	2.29	2.33	2.6	3.9
Clc1ccc(C2(c3ccc(-c4cn[nH]c4)cc3)CCNCC2)cc1 [AT7867] + Cc1nc(Nc2ncc(C(=O)Nc3c(C)cccc3Cl)s2)cc(N2CCN(CCO)CC2)n1 [dasatinib]	0.192	0.0469	0.124	0.135	0.0726	0.094	0.00775	0.00689	3460 nM	1970 nM	1690 nM	8310 nM	530 nM	762 nM	577 nM	348 nM	2.43	2.49	2.16	3.22	1.69	1.96	1.85	2.34
CCN1CCN(Cc2ccc(-c3cc4c(N[C@H](C)c5ccccc5)ncnc4[nH]3)cc2)CC1 [AEE788 (NVP-AEE788)] + Cc1nc(Nc2ncc(C(=O)Nc3c(C)cccc3Cl)s2)cc(N2CCN(CCO)CC2)n1 [dasatinib]	0.218	0.0139	0.0653	0.258	0.0466	0.0223	0.0446	0.00751	2100 nM	305 nM	298 nM	5830 nM	13.7 nM	1770 nM	4450 nM	1790 nM	2.16	1.92	1.81	2.9	1.19	2	2.38	2.92
Cc1c(NC(=O)OC[C@@H]2COCCN2)cn2ncnc(Nc3ccc4c(cnn4Cc4cccc(F)c4)c3)c12.Cl + Cc1nc(Nc2ncc(C(=O)Nc3c(C)cccc3Cl)s2)cc(N2CCN(CCO)CC2)n1 [dasatinib]	0.662	0.19	0.157	0.858	0.249	0.441	0.444	0.251	> 10000 nM	1140 nM	652 nM	> 10000 nM	230 nM	2430 nM	7250 nM	5460 nM	2.47	2.31	2.01	3.28	1.84	2.24	2.62	2.98
CNC(=O)c1cccc(-c2ccc3c(N4CCOC[C@@H]4C)nc(N4CCOC[C@@H]4C)nc3n2)c1 [AZD2014] + Cc1nc(Nc2ncc(C(=O)Nc3c(C)cccc3Cl)s2)cc(N2CCN(CCO)CC2)n1 [dasatinib]	0.119	0.0635	0.0727	0.147	0.0544	0.0331	0.0164	0.00563	88.5 nM	64 nM	131 nM	430 nM	8.2 nM	62.1 nM	44 nM	268 nM	1.48	1.28	1.63	2.2	0.938	1.28	1.33	2.06
CCS(=O)(=O)c1cccc(-c2cc(C(=O)NC3CCN(C)CC3)c(C)c3[nH]c4ncc(C)cc4c23)c1 [TAK-901] + Cc1nc(Nc2ncc(C(=O)Nc3c(C)cccc3Cl)s2)cc(N2CCN(CCO)CC2)n1 [dasatinib]	0.00509	0.0604	0.344	0.013	0.0237	0.0186	0.00567	0.287	347 nM	607 nM	4010 nM	588 nM	235 nM	318 nM	171 nM	8850 nM	1.52	1.93	2.27	2.63	1.5	1.62	1.55	4.3
